Measurements published in patent publication US20200079765A1, “SUBSTITUTED HETEROARYL PYRROLONES AND SALTS THEREOF AND USE THEREOF AS HERBICIDAL ACTIVE SUBSTANCES” (Bayer CropScience Aktiengesellschaft, priority 2016, published 2020).

Columns and labels:
Type in all cases: in vivo
[1] = tested on: Veronica persica; test: Pre-emergence herbicidal action (Experimental Part 1, B); conditions: application rate 1280 g/ha, scored visually after about 3 weeks
Description: (§1) Seeds of monocotyledonous and dicotyledonous weed plants and crop plants were placed in plastic or organic planting pots and covered with soil. The compounds of the invention, formulated in the form of wettable powders (WP) or as emulsion concentrates (EC), were then applied onto the surface of the covering soil as aqueous suspension or emulsion with addition of 0.5% additive at a water application rate of 600 l/ha (converted). After the treatment, the pots were placed in a greenhouse and kept under good growth conditions for the test plants. After about 3 weeks, the effect of the preparations was scored visually in comparison with untreated controls as percentages. For example, 100% activity=the plants have died, 0% activity=like control plants. Tables B1 to B14 below show the effects of selected compounds of the general formula (I) according to Tables I.1 to I.116 on various harmful plants and an application rate corresponding to 1280 g/ha or 320 g/ha, which were obtained by the experimental procedure mentioned above.

[2] = tested on: Abutilon theophrasti; test: as above; conditions: scored visually after about 3 weeks
Description: as §1

[3] = tested on: Matricaria inodora; test: as above; conditions: scored visually after about 3 weeks
Description: as §1

[4] = tested on: Polygonum convolvulus; test: as above; conditions: scored visually after about 3 weeks
Description: as §1

[5] = tested on: Viola tricolor; test: as above; conditions: scored visually after about 3 weeks
Description: as §1

[6] = tested on: Alopecurus myosuroides; test: as above; conditions: scored visually after about 3 weeks
Description: as §1

[7] = tested on: Echinochloa crus-galli; test: as above; conditions: application rate 1280 g/ha, scored visually after about 3 weeks
Description: as §1

[8] = tested on: Setaria viridis; test: as above; conditions: scored visually after about 3 weeks
Description: as §1

[9] = tested on: Stellaria media; test: as above; conditions: scored visually after about 3 weeks
Description: as §1

[10] = tested on: Hordeum murinum; test: as above; conditions: scored visually after about 3 weeks
Description: as §1

[11] = tested on: Lolium rigidum; test: as above; conditions: application rate 1280 g/ha, scored visually after about 3 weeks
Description: as §1

[12] = tested on: Ipomoea purpurea; test: as above; conditions: application rate 1280 g/ha, scored visually after about 3 weeks
Description: as §1

[13] = tested on: Amaranthus retroflexus; test: as above; conditions: scored visually after about 3 weeks
Description: as §1

[14] = tested on: Avena fatua; test: as above; conditions: scored visually after about 3 weeks
Description: as §1

[15] = tested on: Veronica persica; test: Post-emergence herbicidal action (Experimental Part 1, A); conditions: application rate 1280 g/ha, about 3 weeks after treatment, 100% = plants have died, 0% = like control plants
Description: (§2) Seeds of monocotyledonous and dicotyledonous weeds and crop plants were placed in sandy loam in plastic or wood-fiber pots, covered with soil and cultivated in a greenhouse under controlled growth conditions. 2 to 3 weeks after sowing, the test plants were treated at the one-leaf stage. The compounds of the invention, formulated in the form of wettable powders (WP) or as emulsion concentrates (EC), were then sprayed onto the green parts of the plants as aqueous suspension or emulsion with addition of 0.5% additive at a water application rate of 600 l/ha (converted). After the test plants had been kept in the greenhouse under optimum growth conditions for about 3 weeks, the activity of the preparations was rated visually in comparison to untreated controls. For example, 100% activity=the plants have died, 0% activity=like control plants. Tables A1 to A14 below show the effects of selected compounds of the general formula (I) according to Tables I.1 to I.116 on various harmful plants and an application rate corresponding to 1280 g/ha or 320 g/ha, which were obtained by the experimental procedure mentioned above.

[16] = tested on: Abutilon theophrasti; test: as above; conditions: about 3 weeks after treatment, 100% = plants have died, 0% = like control plants
Description: as §2

[17] = tested on: Matricaria inodora; test: as above; conditions: rated visually after about 3 weeks
Description: as §2

[18] = tested on: Polygonum convolvulus; test: as above; conditions: rated visually after about 3 weeks
Description: as §2

[19] = tested on: Viola tricolor; test: as above; conditions: rated visually after about 3 weeks
Description: as §2

[20] = tested on: Alopecurus myosuroides; test: as above; conditions: about 3 weeks after treatment, 100% = plants have died, 0% = like control plants
Description: as §2

[21] = tested on: Echinochloa crus-galli; test: as above; conditions: about 3 weeks after treatment, 100% = plants have died, 0% = like control plants
Description: as §2

[22] = tested on: Setaria viridis; test: as above; conditions: about 3 weeks after treatment, 100% = plants have died, 0% = like control plants
Description: as §2

[23] = tested on: Stellaria media; test: as above; conditions: rated visually after about 3 weeks
Description: as §2

[24] = tested on: Hordeum murinum; test: as above; conditions: application rate 1280 g/ha, rated visually after about 3 weeks
Description: as §2

[25] = tested on: Lolium rigidum; test: as above; conditions: application rate 1280 g/ha, rated visually after about 3 weeks
Description: as §2

[26] = tested on: Ipomoea purpurea; test: as above; conditions: application rate 1280 g/ha, rated visually after about 3 weeks
Description: as §2

[27] = tested on: Amaranthus retroflexus; test: as above; conditions: about 3 weeks after treatment, 100% = plants have died, 0% = like control plants
Description: as §2

[28] = tested on: Avena fatua; test: as above; conditions: rated visually after about 3 weeks
Description: as §2

## CC(=O)OC1C(C)=CC(=O)N1c1cc(C(C)(C)C)on1 (stereo not drawn) [I.3-162]
[1]
  Veronica persica, herbicidal activity: 100%
[2]; application rate 320 g/ha
  Abutilon theophrasti, herbicidal activity: 100%
[2]; application rate 1280 g/ha
  Abutilon theophrasti, herbicidal activity: 100%
[3]; application rate 320 g/ha
  Matricaria inodora, herbicidal activity: 100%
[3]; application rate 1280 g/ha
  Matricaria inodora, herbicidal activity: 100%
[4]; application rate 320 g/ha
  Polygonum convolvulus, herbicidal activity: 100%
[4]; application rate 1280 g/ha
  Polygonum convolvulus, herbicidal activity: 100%
[5]; application rate 320 g/ha
  Viola tricolor, herbicidal activity: 100%
[5]; application rate 1280 g/ha
  Viola tricolor, herbicidal activity: 100%
[6]; application rate 320 g/ha
  Alopecurus myosuroides, herbicidal activity: 90%
[6]; application rate 1280 g/ha
  Alopecurus myosuroides, herbicidal activity: 90%
[7]
  Echinochloa crus-galli, herbicidal activity: 100%
[8]; application rate 320 g/ha
  Setaria viridis, herbicidal activity: 100%
[8]; application rate 1280 g/ha
  Setaria viridis, herbicidal activity: 100%
[9]; application rate 320 g/ha
  Stellaria media, herbicidal activity: 90%
[9]; application rate 1280 g/ha
  Stellaria media, herbicidal activity: 100%
[10]; application rate 320 g/ha
  Hordeum murinum, herbicidal activity: 90%
[10]; application rate 1280 g/ha
  Hordeum murinum, herbicidal activity: 100%
[11]
  Lolium rigidum, herbicidal activity: 90%
[12]
  Ipomoea purpurea, herbicidal activity: 90%
[13]; application rate 320 g/ha
  Amaranthus retroflexus, herbicidal activity: 100%
[13]; application rate 1280 g/ha
  Amaranthus retroflexus, herbicidal activity: 100%
[14]; application rate 320 g/ha
  Avena fatua, herbicidal activity: 90%
[14]; application rate 1280 g/ha
  Avena fatua, herbicidal activity: 90%
[15]
  herbicidal activity on Veronica persica (visual rating vs untreated controls): 100%
[16]; application rate 320 g/ha
  herbicidal activity on Abutilon theophrasti (visual rating vs untreated controls): 100%
[16]; application rate 1280 g/ha
  herbicidal activity on Abutilon theophrasti (visual rating vs untreated controls): 100%
[17]; application rate 320 g/ha
  Matricaria inodora, herbicidal activity: 100%
[17]; application rate 1280 g/ha
  Matricaria inodora, herbicidal activity: 100%
[18]; application rate 320 g/ha
  Polygonum convolvulus, herbicidal activity: 100%
[18]; application rate 1280 g/ha
  Polygonum convolvulus, herbicidal activity: 100%
[19]; application rate 320 g/ha
  Viola tricolor, herbicidal activity: 100%
[19]; application rate 1280 g/ha
  Viola tricolor, herbicidal activity: 100%
[20]; application rate 320 g/ha
  herbicidal activity on Alopecurus myosuroides (visual rating vs untreated controls): 100%
[20]; application rate 1280 g/ha
  herbicidal activity on Alopecurus myosuroides (visual rating vs untreated controls): 100%
[21]; application rate 320 g/ha
  herbicidal activity on Echinochloa crus-galli (visual rating vs untreated controls): 90%
[21]; application rate 1280 g/ha
  herbicidal activity on Echinochloa crus-galli (visual rating vs untreated controls): 100%
[22]; application rate 320 g/ha
  herbicidal activity on Setaria viridis (visual rating vs untreated controls): 100%
[22]; application rate 1280 g/ha
  herbicidal activity on Setaria viridis (visual rating vs untreated controls): 100%
[23]; application rate 320 g/ha
  Stellaria media, herbicidal activity: 100%
[23]; application rate 1280 g/ha
  Stellaria media, herbicidal activity: 100%
[24]
  Hordeum murinum, herbicidal activity: 100%
[25]
  Lolium rigidum, herbicidal activity: 90%
[26]
  Ipomoea purpurea, herbicidal activity: 90%
[27]; application rate 320 g/ha
  herbicidal activity on Amaranthus retroflexus (visual rating vs untreated controls): 90%
[27]; application rate 1280 g/ha
  herbicidal activity on Amaranthus retroflexus (visual rating vs untreated controls): 100%
[28]; application rate 320 g/ha
  Avena fatua, herbicidal activity: 90%
[28]; application rate 1280 g/ha
  Avena fatua, herbicidal activity: 90%
